Earlier results in patent EP3811932A1, “DOSAGE FORM OF APALUTAMIDE” (Zentiva K.S., priority 2019, dated 2021).

Conditions: over a wide range of pH values

solubility in aqueous media: practically insoluble
Compound: CNC(=O)c1ccc(N2C(=S)N(c3cnc(C#N)c(C(F)(F)F)c3)C(=O)C23CCC3)cc1F [Apalutamide, 4-[7-[6-cyano-5-(trifluoromethyl)pyridin-3-yl]-8-oxo-6-thioxo-5,7-diazaspiro[3.4]octan-5-yl]-2-fluoro-N-methylbenzamide]
